Assay results from patent EP3057951B1, “METHYLENE LINKED QUINOLINYL MODULATORS OF ROR-GAMMA-T” (Janssen Pharmaceutica NV, priority 2013, dated 2015).
Where “and” joins values, the source holds several entries; their conditions need not be identical. Identical values can stand only once. Counter-ions that a name gives are not always drawn. Like-named read-outs stand apart in the source and are kept apart here.

Experiments:
[1] = biological target: T1, wild type human RORγt ligand binding domain (RORyt LBD) (Homo sapiens, UniProt P51449); assay: RORγt ThermoFluor assay (thermal shift, binding affinity KD)
T1 construct: His-tag (N); TurboTEV protease cleavage site (ENLYFQG) (N); made in house; host or cells: E. coli (pHIS1, modified pET vector)
T1 sequence (P51449 258-518): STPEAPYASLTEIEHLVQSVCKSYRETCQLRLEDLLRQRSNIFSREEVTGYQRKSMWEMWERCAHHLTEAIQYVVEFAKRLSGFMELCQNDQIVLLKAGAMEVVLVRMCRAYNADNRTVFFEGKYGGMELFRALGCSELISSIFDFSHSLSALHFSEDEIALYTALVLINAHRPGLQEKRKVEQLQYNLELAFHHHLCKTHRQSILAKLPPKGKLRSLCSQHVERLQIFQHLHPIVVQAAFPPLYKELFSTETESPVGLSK

[2] = biological target: T2, wild type human RORγt LBD (Homo sapiens, UniProt P51449); assay: RORγt (LBD) Reporter Assay (GAL4-luciferase, HEK293T cells); assay type: cell-based; settings: for RORγt (LBD) Reporter Assay, % inhibition @ 6 µM: 6 µM compound concentration; for inhibition at 6 µM: HEK-293T, read-out: RORγt (LBD) Reporter Assay, % inhibition @ 6 µM, 6 µM compound concentration
T2 construct: expressed in transfected cells; host or cells: HEK293T
T2 sequence (P51449 258-518): T1 sequence (P51449 258-518)

[3] = HEK293T cells, value after the comma with ∼, > or < could not be included in the average

| SMILES | Kd [1] [nM] | RORγt (LBD) Reporter Assay, % inhibition @ 6 µM [2] [%] | IC50 [2, 3] | inhibition at 6 µM [2] [%] | RORγt (LBD) Reporter Assay, % inhibition @ 6 µM ([2]; 6 µM) [%] | IC50 ([2]; HEK293T cells) [nM] | inhibition at 6 µM ([2]; HEK293T cells) [%] |
| --- | --- | --- | --- | --- | --- | --- | --- |
| COc1nc2ccc(C(O)(c3cncn3C)c3cnnn3C)cc2c(Cl)c1Cc1ccc(C(F)(F)F)cc1 (single isomer, unassigned) [Example 89c, (4-Chloro-2-methoxy-3-(4-(trifluoromethyl)benzyl)quinolin-6-yl)(1-methyl-1H-1,2,3-triazol-5-yl)(1-methyl-1H-imidazol-5-yl)methanol] | 0.26 | 97 | < 2 nM | – | – | – | – |
| COc1nc2ccc(C(O)(c3ccc(Cl)cc3)c3cncn3C)cc2c(C#N)c1Cc1ccc(C(F)(F)F)cc1 (single isomer, unassigned) [Example 55b, 6-((4-Chlorophenyl)(hydroxy)(1-methyl-1H-imidazol-5-yl)methyl)-2-methoxy-3-(4-(trifluoromethyl)benzyl)quinoline-4-carbonitrile] | 530 | – | 500 nM | 96 | – | – | – |
| Cn1cncc1C(O)(c1ccc(C(F)(F)F)nc1)c1ccc2nc(C(F)(F)F)c(Cc3ccccc3)c(C#N)c2c1 (single isomer, unassigned) [Example 108c, 3-Benzyl-6-(hydroxy(1-methyl-1H-imidazol-5-yl)(6-(trifluoromethyl)pyridin-3-yl)methyl)-2-(trifluoromethyl)quinoline-4-carbonitrile] | 46 | – | 960 nM and ~1000 nM | – | 83 | – | – |
| COc1nc2ccc(C(O)(c3cnnn3C)c3cnc(C)n3C)cc2c(Cl)c1Cc1ccc(C(F)(F)F)nc1 (stereo not drawn) [Example 43a, (4-Chloro-2-methoxy-3-((6-(trifluoromethyl)pyridin-3-yl)methyl)quinolin-6-yl)(1,2-dimethyl-1H-imidazol-5-yl)(1-methyl-1H-1,2,3-triazol-5-yl)methanol] | 1 | – | 7.9 nM | 98 | – | – | – |
| COc1nc2ccc(C(O)(c3ccccc3)C3CCN(C(C)=O)CC3)cc2c(Cl)c1Cc1ccc(C(F)(F)F)cc1 (single isomer, unassigned) [Example 69b, 1-(4-((4-Chloro-2-methoxy-3-(4-(trifluoromethyl)benzyl)quinolin-6-yl)(hydroxy)(phenyl)methyl)piperidin-1-yl)ethanone] | 1.8 | – | 36 nM | 100 | – | – | – |
| Cn1cncc1C(O)(c1ccc2nc(C(F)(F)F)c(Cc3ccccc3)c(Cl)c2c1)c1ccccn1 (stereo not drawn) [Example 97, (3-Benzyl-4-chloro-2-(trifluoromethyl)quinolin-6-yl)(1-methyl-1H-imidazol-5-yl)(pyridin-2-yl)methanol•TFA] | 67 | – | 200 nM | 96 | – | – | – |
| Cn1cncc1C(O)(c1ccc(C(F)(F)F)nc1)c1ccc2nc(N3CC(F)(F)C3)c(Cc3ccc(-n4cccn4)cc3)c(Cl)c2c1 (stereo not drawn) [Example 135a, {4-Chloro-2-(3,3-difluoroazetidin-1-yl)-3-[4-(1H-pyrazol-1-yl)benzyl]quinolin-6-yl}(1-methyl-1H-imidazol-5-yl)[6-(trifluoromethyl)pyridin-3-yl] methanol.TFA] | 36 | – | – | – | – | 270 | 97 |
| COc1nc2ccc(C(O)(c3cccnc3)c3ccc(Cl)c(Cl)c3)cc2c(Cl)c1Cc1ccc(-n2cccn2)cc1 (stereo not drawn) [Example 161a, (3-(4-(1H-Pyrazol-1-yl)benzyl)-4-chloro-2-methoxyquinolin-6-yl)(3,4-dichlorophenyl)(pyridin-3-yl)methanol] | 15 | – | – | – | – | 57 | 96 |
| Cn1cncc1C(O)(c1ccc(Cl)cc1)c1ccc2nc(N3CCC3)c(Cc3ccc(-n4cccn4)cc3)c(Cl)c2c1 (stereo not drawn) [Example 138a, {2-Azetidin-1-yl-4-chloro-3-[4-(1H-pyrazol-1-yl)benzyl]quinolin-6-yl}(4-chlorophenyl)(1-methyl-1H-imidazol-5-yl)methanol] | 130 | – | – | – | – | 130 | 98 |
| COc1nc2ccc(C(O)(c3sc(C)nc3C)c3cnnn3C)cc2c(Cl)c1Cc1ccc(-n2cccn2)cc1 (single isomer, unassigned) [Example 21c, (3-(4-(1H-Pyrazol-1-yl)benzyl)-4-chloro-2-methoxyquinolin-6-yl)(2,4-dimethylthiazol-5-yl)(1-methyl-1H-1,2,3-triazol-5-yl)methanol] | 0.08 | – | 8.7 nM | – | 98 | – | – |
| COc1nc2ccc(C(O)(c3ccc(C)nc3C)c3cnc(C)n3C)cc2c(Cl)c1Cc1ccc(C(F)(F)F)cc1 (racemic) [Example 57a, (4-Chloro-2-methoxy-3-(4-(trifluoromethyl)benzyl)quinolin-6-yl)(1,2-dimethyl-1H-imidazol-5-yl)(2,6-dimethylpyridin-3-yl)methanol] | 0.03 | – | 22 nM | 100 | – | – | – |
| Cc1ccc(C(O)(c2ccc3nc(Cl)c(Cc4ccc(C(F)(F)F)cc4)c(NC4CC4)c3c2)c2cnnn2C)c(C)n1 (stereo not drawn) [Example 144a, {2-Chloro-4-(cyclopropylamino)-3-[4-(trifluoromethyl)benzyl]quinolin-6-yl}(2,6-dimethylpyridin-3-yl)(1-methyl-1H-1,2,3-triazol-5-yl)methanol] | 12 | – | – | – | – | 74 | 99 |
| COc1nc2ccc(C(O)(c3cnnn3C)c3cnc(C)n3C)cc2c(C#N)c1Cc1ccc(C(F)(F)F)nc1 (single isomer, unassigned) [Example 44b, 6-((1,2-Dimethyl-1H-imidazol-5-yl)(hydroxy)(1-methyl-1H-1,2,3-triazol-5-yl)methyl)-2-methoxy-3-((6-(trifluoromethyl)pyridin-3-yl)methyl)quinoline-4-carbonitrile] | 5.2 | – | 24 nM | 99 | – | – | – |
| COc1nc2ccc(C(O)(c3ccc(F)cc3)C3CCN(C(C)=O)CC3)cc2c(Cl)c1Cc1ccc(-n2cccn2)cc1 (stereo not drawn) [Example 157a, 1-(4-((3-(4-(1H-Pyrazol-1-yl)benzyl)4-chloro-2-methoxyquinolin-6-yl)(4-fluorophenyl)(hydroxy)methyl)piperidin-1-yl)ethanone] | 3.9 | – | – | – | – | ~7 | 93 |
| COc1nc2ccc(C(N)(c3ccc(C(F)(F)F)nc3)c3cncn3C)cc2c(Cl)c1Cc1cc2ccccc2s1 (racemic) [Example 71a, (3-(Benzo[b]thiophen-2-ylmethyl)4-chloro-2-methoxyquinolin-6-yl)(1-methyl-1H-imidazol-5-yl)(6-(trifluoromethyl)pyridin-3-yl)methanamine] | 61 | – | 210 nM | 98 | – | – | – |
| Cn1cncc1C(O)(c1ccc(Cl)cc1)c1ccc2nc(N3CCC3)c(Cc3ccc(-n4cccn4)cc3)c(Cl)c2c1 (single isomer, unassigned) [Example 138b, {2-Azetidin-1-yl-4-chloro-3-[4-(1H-pyrazol-1-yl)benzyl]quinolin-6-yl}(4-chlorophenyl)(1-methyl-1H-imidazol-5-yl)methanol] | 1300 | – | – | – | – | 560 | 101 |
| COc1nc2ccc(C(O)(c3cnnn3C)C3CCN(C(C)=O)CC3)cc2c(Cl)c1Cc1ccc(C(F)(F)F)cc1 (racemic) [Example 74a, 1-(4-((4-Chloro-2-methoxy-3-(4-(trifluoromethyl)benzyl)quinolin-6-yl)(hydroxy)(1-methyl-1H-1,2,3-triazol-5-yl)methyl)piperidin-1-yl)ethanone] | 3.1 | – | ~10 nM | 98 | – | – | – |
| Cn1cncc1C(O)(c1ccc(C(F)(F)F)nc1)c1ccc2nc(C#N)c(Cc3ccc(F)cc3)c(C#N)c2c1 (single isomer, unassigned) [Example 53c, 3-(4-Fluorobenzyl)-6-(hydroxy(1-methyl-1H-imidazol-5-yl)(6-(trifluoromethyl)pyridin-3-yl)methyl)quinoline-2,4-dicarbonitrile] | 48 | – | 680 nM | – | 74 | – | – |
| Cn1cc(-c2nc3ccc(C(O)(c4ccc(C(F)(F)F)nc4)c4cncn4C)cc3c(C#N)c2Cc2ccccc2)cn1 (single isomer, unassigned) [Example 112b, 3-Benzyl-6-(hydroxy(1-methyl-1H-imidazol-5-yl)(6-(trifluoromethyl)pyridin-3-yl)methyl)-2-(1-methyl-1H-pyrazol-4-yl)quinoline-4-carbonitrile] | 2200 | – | 450 nM | – | 92 | – | – |
| Cn1cncc1C(O)(c1ccc(C#N)cc1)c1ccc2nc(C(F)(F)F)c(Cc3ccccc3)c(C#N)c2c1 (stereo not drawn) [Example 104, 3-Benzyl-6-((4-cyanophenyl)(hydroxy)(1-methyl-1H-imidazol-5-yl)methyl)-2-(trifluoromethyl)quinoline-4-carbonitrile•TFA] | 6.3 | – | 19 nM | 82 | – | – | – |
| COc1nc2ccc(C(O)(c3ccc(C)nc3C)c3cnnn3C)cc2c(Cl)c1Cc1ccc(-n2cccn2)cc1 (stereo not drawn) [Example 17a, (3-(4-(1H-Pyrazol-1-yl)benzyl)4-chloro-2-methoxyquinolin-6-yl)(2,6-dimethylpyridin-3-yl)(1-methyl-1H-1,2,3-triazol-5-yl)methanol] | 0.91 | – | 10 nM | 99 | – | – | – |
| COc1nc2ccc(C(O)(c3ccc(C)nc3C)c3cnnn3C)cc2c(Cl)c1Cc1ccc(C)cc1 (stereo not drawn) [Example 20a, (4-Chloro-2-methoxy-3-(4-methylbenzyl)quinolin-6-yl)(2,6-dimethylpyridin-3-yl)(1-methyl-1H-1,2,3-triazol-5-yl)methanol] | 1.1 | – | 40 nM | 91 | – | – | – |
